Values of other authors in US20170232011A1, “PHARMACEUTICAL COMPOSITION AND METHOD FOR THE TREATMENT OF URINARY TRACT INFECTIONS” (priority 2016, published 2017).

Assays:
[1] = system: Staphylococcus saprophyticus
[2] = 100 mg oral dose
[3] = system: Coagulase negative staphylococci

Row | oral dose excreted directly into the urine chemically unchanged [%] | Structure (SMILES) | activity against Enterococcus faecalis (Enterococcus faecalis) | activity against Staphylococcus saprophyticus [1] | plasma levels ([2]; plasma) | level in the urine ([2]; urine) [µg/mL] | activity against Coagulase negative staphylococci [3] | activity against E. coli (E. coli) | activity against Staphylococcus aureus (Staphylococcus aureus) | activity against Citrobacter species (Citrobacter species) | activity against Klebsiella species (Klebsiella species) | activity against Streptococcus agalactiae (Streptococcus agalactiae)
1 | – | O=C1CN(N=Cc2ccc([N+](=O)[O-])o2)C(=O)N1 [Nitrofurantoin, 1-[[[5-nitro-2-furanyl]methylene]amino]-2,4-imidazolidinedione] | good activity | good activity | less than 1 μg/ml | 200 | good activity | good activity | good activity | good activity | good activity | good activity
2 | ~65 | Nc1ccc(N=Nc2ccccc2)c(N)n1 [Phenazopyridine, 3-phenyldiazenylpyridine-2,6-diamine] | – | – | – | – | – | – | – | – | – | –
